The source of these data is article PMC11874377, “Fungal-derived methyldeoxaphomins target Plasmodium falciparum segregation through the inhibition of PfActin1” (Proceedings of the National Academy of Sciences of the …, 2025).

For one test, the system named is Dd2-Pol δ parent line. As to the kind of experiment: Resistant parasite phenotyping and cross resistance, SYBR green I EC50 assay, parent line. It counts as cell-based, Plasmodium falciparum. The conditions noted are these: strain Dd2-Pol δ -parent, read-out: EC50 (mean ± SEM). The procedure:
(§1) Cloning by limiting dilution was then performed to isolate individual lines from the bulk population. Due to the multiple mutations identified in the first biological replicate, we isolated four clones from this bulk culture as compared to two clones each from the second and third replicates. These clones were phenotyped via a SYBR green I-based dose–response assay (Table 2 and Fig. 2B). […] The DNA of these clones was then extracted and subjected to whole-genome sequencing.
(§2) Resistant parasite phenotyping and cross resistance measurement
(§3) The EC50 assay was performed at 1% parasitemia, 1% hematocrit with SYBR green I in 96-well plates. The highest final concentration of the methyldeoxaphomin NPDG-F was set at 100 μM. Briefly, the compound was subjected to a 3-fold serial dilution with ten dilution points. Three technical replicates were set up at each dilution point. The Dd2-Pol δ parent line and the resistant parasites at 2% hematocrit and 1% parasitemia were added to the drug media at 1:1 ratio. The plate was incubated at 37°C for 72 hours in a chamber filled with a hypoxic gas mixture (3% oxygen, 5% carbon dioxide, and 92% nitrogen). After incubation, the cells were lysis with lysis buffer (20 mM Tris-HCL, 0.08% saponin, 5 mM EDTA, and 0.8% Triton X-100) containing SYBR green I (10,000X, Thermo Fisher, cat # S7563) overnight. Fluorescence was measured at 485nm excitation and 530nm emission using a PHERAstar FSX plate reader (BMG Labtech, Germany). Dose response curves were graphed with Prism 9 Version 9.5.1.
3D structural analysis of the mutations and docking studies
The crystal structure of PfActin1 with accession number 6TU4 (resolution 2.60 Ang) (Vahokoski et al., 2022) was obtained from the Protein Data Bank (PDB). This structure of PfActin1 contains ligands Jasplakinolide and ADP with a coordinating magnesium ion.
Only chain A was used for the docking experiment. […] Schrodinger maestro software (Schrödinger, LLC) was used to build NPDG-F with the proper stereochemistry using the x-ray structure determined for analog NPDG-A (vide supra). […]

Test [1] deals with in vitro evolved NPDG-F-resistant Dd2-Pol δ clones (PfActin1 mutations). In words: Resistant parasite phenotyping and cross resistance, SYBR green I EC50 assay, NPDG-F-resistant clones. Format: cell-based, Plasmodium falciparum. The conditions noted are these: for EC50: read-out: EC50 (mean ± SEM). The procedure:
as §1
To investigate whether NPDG-F has the same mode of action as cytochalasin D, we tested our clones for sensitivity to both cytochalasin D and jasplakinolide.
as §2
as §3, with “9.5.1. […]” for “9.5.1.”

The next test has as its target barbed end of F-actin. The conditions noted are these: read-out: binding affinity Kd; cited from earlier work.
The test system of the next test is P. falciparum. As to the kind of experiment: Isobologram assay with NPDG-F. It counts as cell-based, Plasmodium falciparum. The procedure:
To further explore the relationship of NPDG-F with established actin-interfering drugs, an isobologram study was performed (Fig. 3). NPDG-F was added in combination with four inhibtors known to interfere with actin polymerization including a formin inhibitor SMIFH2, cofilin inhibitor SZ-3, F-actin targeting compound jasplakinolide, and G-actin targeting latrunculin B. The frontline antimalarial DHA was also added as a nonactin inhibitor control. After dose–response curves were generated (Fig. 3A), the fractional inhibitory concentrations (FICs) of NPDG-F and the combination drug were calculated and graphed. […]
Plasmodium blood stage culture
Parasite culture in the Chakrabarti lab was maintained following a modified Trager and Jensen protocol (Trager & Jensen, 1976) as previously described (Lee et al., 2021) with RPMI 1640 with 25 mM HEPES pH 7.4, 26 mM NaHCO3, 15 mg/L hypoxanthine, 0.5% Albumax II, 25 mg/L gentamycin, and 2% dextrose. Parasites were grown with human A+ erythrocytes obtained from Florida OneBlood. Cultures were kept in an incubator with 5% […]
Antiplasmodial activity screening
SYBR Green I-based fluorescence assay was performed as previously described (Lee et al., 2021) following protocols by Smilkstein et. al. (Smilkstein et al., 2004). Asynchronous Dd2 parasites were added to serially diluted compounds and incubated for 72 h at 5% CO2, 95% air at 37°C. Plates were then frozen at -80°C, thawed, and incubated for one hour with 1x SYBR Green I in a lysis buffer (20 mM Tris-HCL, 0.08% saponin, 5 mM EDTA, and 0.8% Triton X-100). Fluorescence was then read on a Synergy Neo2 multimode reader (BioTek Winsooki, VT). Compound dose response curves and EC50 determination was performed using CDD Vault normalized to 10 µM CQ and vehicle […]
For isobologram assessment, inhibitors were tested using a 1:2 dilution with starting concentrations selected as 40 nM for DHA, 100 µM Latrunculin B, 100 µM SMIFH2, and 40 nM for jasplakinolide. These concentrations were selected to provide 2-3 points above […]
EC50s. The test inhibitor methyldeoxaphomin NPDG-F was then added in combination with the aforementioned inhibitors at concentrations ranging from 10 to 0.3125 µM. Dose-response curves were then generated for the available conditions where EC50s could be determined. The fractional inhibitor concentration of both compounds was then determined as described (Fivelman et al., 2004) for the available points and graphed on a scale of 0-1 also using Graphpad Prism version 10. […]

Each structure is given as a SMILES string. Where two headings read alike, the source gives them in different places.

`C=C1[C@@H](C)[C@H]2[C@H](Cc3ccccc3)NC(=O)[C@]23[C@H](OC(C)=O)/C=C/[C@@](C)(O)C(=O)[C@@H](C)C/C=C/[C@H]3[C@@H]1O` [Cytochalasin D, cytochalasin D]: the EC50 was 17.3 ± 0.5 nM with Dd2-Pol δ parent line (Plasmodium falciparum); 302 ± 8.8 nM in test [1] (Plasmodium falciparum, DD2, clone 1-C7, A171S (8%), A171V (92%), I290L); 317 ± 9.2 nM in test [1] (Plasmodium falciparum, DD2, clone 1-D6, A171S (3%), A171V (97%), I290L); 402 ± 7 nM in test [1] (Plasmodium falciparum, DD2, clone 1-D7, A171S (22%), A171V (78%), I290L); 367 ± 7.8 nM in test [1] (Plasmodium falciparum, DD2, clone 1-F3, A171S (4%), A171V (96%), I290L); 60.8 ± 0.8 nM in test [1] (Plasmodium falciparum, DD2, clone 2-C4, A136S). Moreover, the EC50 in test [1] (Plasmodium falciparum, DD2, clone 2-F5, A136S) worked out at 71.3 ± 1.7 nM; in test [1] (Plasmodium falciparum, DD2, clone 3-C3, A136S) it was 66.4 ± 0.2 nM; in test [1] (Plasmodium falciparum, DD2, clone 3-C5, A136S), 73.2 ± 0.7 nM. Moreover, the “cross-resistance of NPDG-F-resistant clones” value in test [1] is recorded as “cross-resistant”. Also, the “average EC50 shift, clones from flasks 2 and 3” value in test [1] (A136S) came out at 3.9 fold. Also, the “average EC50 shift, clones from flask 1” value in test [1] (A171V/S and I290L clones) was 20 fold. Further, the Fold change in test [1] (clone 1-C7 vs Dd2-Pol δ parent) was 17.5; in test [1] (clone 1-D6 vs Dd2-Pol δ parent) it was 18.3; in test [1] (clone 1-D7 vs Dd2-Pol δ parent), 23.3; in test [1] (clone 1-F3 vs Dd2-Pol δ parent) it was 21.2; in test [1] (clone 2-C4 vs Dd2-Pol δ parent), 3.5; in test [1] (clone 2-F5 vs Dd2-Pol δ parent), 4.1. The Fold change in test [1] (clone 3-C3 vs Dd2-Pol δ parent) came to 3.8; in test [1] (clone 3-C5 vs Dd2-Pol δ parent), 4.2. Also, at barbed end of F-actin, the Kd was about 2 nM.

`C/C1=C\[C@H](C)C[C@H](C)OC(=O)C[C@H](c2ccc(O)cc2)NC(=O)[C@@H](Cc2c(Br)[nH]c3ccccc23)N(C)C(=O)[C@H](C)NC(=O)[C@@H](C)C1` [Jasplakinolide, jasplakinolide]: the EC50 in the test on Dd2-Pol δ parent line amounted to 25.1 ± 1.4 nM; in test [1] (clone 1-C7, A171S (8%), A171V (92%), I290L) it was 25.2 ± 0.4 nM; in test [1] (clone 1-D6, A171S (3%), A171V (97%), I290L) it was 27.6 ± 4 nM; in test [1] (clone 1-D7, A171S (22%), A171V (78%), I290L) it was 25.9 ± 0.8 nM; in test [1] (clone 1-F3, A171S (4%), A171V (96%), I290L) it was 30.7 ± 3.2 nM; in test [1] (clone 2-C4, A136S), 22.4 nM. The EC50 in test [1] (clone 2-F5, A136S) was found to be 25.1 ± 2.9 nM; in test [1] (clone 3-C3, A136S), 24 nM; in test [1] (clone 3-C5, A136S) it was 25.4 ± 2.1 nM. The Fold change in test [1] (clone 1-C7 vs Dd2-Pol δ parent) was determined as 1.0; in test [1] (clone 1-D6 vs Dd2-Pol δ parent) it was 1.1; in test [1] (clone 1-D7 vs Dd2-Pol δ parent), 1.0; in test [1] (clone 1-F3 vs Dd2-Pol δ parent) it was 1.2; in test [1] (clone 2-C4 vs Dd2-Pol δ parent), 0.9; in test [1] (clone 2-F5 vs Dd2-Pol δ parent) it was 1.0. In addition, the Fold change in test [1] (clone 3-C3 vs Dd2-Pol δ parent) and in test [1] (clone 3-C5 vs Dd2-Pol δ parent) was 1.0 in each case. For the same compound, the “fractional inhibitory concentration (FIC)” value in the test on P. falciparum (combination with NPDG-F) is “highest FIC values overall”. Also, the IC50 in the test with P. falciparum (single compounds, dose–response, Fig. 3A, read-out: Mean IC50 ± SEM) came out at 58 ± 17 nM.
